Laboratory results reported in BindingDB's records for doi:10.1016/j.bmcl.2005.03.024 (Johnson & Johnson Pharmaceutical, 2005).

The compounds below were run against Cyclin-dependent kinase/G2/mitotic-specific cyclin- 1 (Homo sapiens, UniProt P06493) (assay: Kinase Inhibition Assay). Details: not given.
Description: The enzyme was assayed with a biotinylated peptide substrate and test compounds in the presence of 10 uM ATP/[gamma-33P]ATP in a streptavidin coated FlashPlate (Perkin-Elmer, Boston, MA). Inhibition of the enzymatic activity due to the compound was measured by observing a reduced amount of 33P-gamma-ATP incorporated into the immobilized peptide relative to untreated controls. Linear regression analysis of the percent of inhibition by the test compound was used to calculate IC50 values.

Chain of Cyclin-dependent kinase/G2/mitotic-specific cyclin- 1 (P06493 whole entry): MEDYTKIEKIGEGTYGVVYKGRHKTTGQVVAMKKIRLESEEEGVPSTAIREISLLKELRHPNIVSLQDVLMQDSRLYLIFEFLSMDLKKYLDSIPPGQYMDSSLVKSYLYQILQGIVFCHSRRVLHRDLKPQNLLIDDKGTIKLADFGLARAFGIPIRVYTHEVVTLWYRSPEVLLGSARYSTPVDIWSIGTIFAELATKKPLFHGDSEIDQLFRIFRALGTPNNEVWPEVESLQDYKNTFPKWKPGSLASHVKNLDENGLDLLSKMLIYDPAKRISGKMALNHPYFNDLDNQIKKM
Chain of Cyclin-dependent kinase/G2/mitotic-specific cyclin- 1 (P14635 whole entry, further chain): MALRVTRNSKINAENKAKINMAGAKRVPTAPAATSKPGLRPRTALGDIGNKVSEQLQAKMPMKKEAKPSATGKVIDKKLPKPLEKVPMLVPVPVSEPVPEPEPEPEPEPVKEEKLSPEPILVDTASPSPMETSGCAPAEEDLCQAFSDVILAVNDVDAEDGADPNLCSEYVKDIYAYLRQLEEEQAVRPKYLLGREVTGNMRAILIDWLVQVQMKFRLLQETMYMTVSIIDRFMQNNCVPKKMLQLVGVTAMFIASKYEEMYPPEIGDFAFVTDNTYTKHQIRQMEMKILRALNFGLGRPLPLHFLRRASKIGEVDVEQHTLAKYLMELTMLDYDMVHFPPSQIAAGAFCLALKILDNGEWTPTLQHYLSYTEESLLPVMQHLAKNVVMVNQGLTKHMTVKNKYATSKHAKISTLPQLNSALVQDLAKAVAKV

SMILES	IC50
Nc1nc(Nc2ccc(S(=O)(=O)N(Cc3ccccc3)Cc3ccccc3)cc2)ccc1C(=O)c1c(F)cccc1F [4-({6-amino-5-[(2,6-difluorophenyl)carbonyl]pyridin-2-yl}amino)-N,N-dibenzylbenzene-1-sulfonamide]	> 10 µM
CCN(CC)S(=O)(=O)c1ccc(Nc2ccc(C(=O)c3ccccc3)c(N)n2)cc1 [4-[(6-amino-5-benzoylpyridin-2-yl)amino]-N,N-diethylbenzene-1-sulfonamide]	> 100 µM

More lines, now with the values ahead:

IC50	SMILES
> 100 µM	Nc1ccc(C(=O)c2ccco2)c(N)n1 [3-(furan-2-ylcarbonyl)pyridine-2,6-diamine]
> 100 µM	Nc1ccc(C(=O)c2cccs2)c(N)n1 [3-(thiophen-2-ylcarbonyl)pyridine-2,6-diamine]
> 100 µM	CCN(CC)S(=O)(=O)c1ccc(Nc2ccc(C(=O)c3ccco3)c(N)n2)cc1 [4-{[6-amino-5-(furan-2-ylcarbonyl)pyridin-2-yl]amino}-N,N-diethylbenzene-1-sulfonamide]

Same assay, conditions: pH 8; 30 °C

IC50	SMILES
> 10 µM	Nc1nc(Nc2ccccc2[N+](=O)[O-])ccc1C(=O)c1c(F)cccc1F [5-[(2,6-difluorophenyl)carbonyl]-2-N-(2-nitrophenyl)pyridine-2,6-diamine]
> 100 µM	CC(=O)Nc1ccccc1Nc1ccc(C(=O)c2c(F)cccc2F)c(N)n1 [N-[2-({6-amino-5-[(2,6-difluorophenyl)carbonyl]pyridin-2-yl}amino)phenyl]acetamide]
> 100 µM	Nc1nc(Nc2ccccc2NC(=O)c2ccccc2)ccc1C(=O)c1c(F)cccc1F [N-[2-({6-amino-5-[(2,6-difluorophenyl)carbonyl]pyridin-2-yl}amino)phenyl]benzamide]
> 100 µM	Nc1nc(Nc2ccccc2NS(=O)(=O)c2ccccc2)ccc1C(=O)c1c(F)cccc1F [N-[2-({6-amino-5-[(2,6-difluorophenyl)carbonyl]pyridin-2-yl}amino)phenyl]benzenesulfonamide]
